Read-outs that look alike come from different tables or passages of the source.
Key:
Assay in all cases: biochemical
AURKA (Aurora A) = molecular target: T1, AURKA (Aurora A) (Homo sapiens, UniProt O14965); parameters: SelectScreen Z'-LYTE purified kinase panel, per cent inhibition, mean of two points; details: (μM)=Km app
T1 sequence (O14965 1-403): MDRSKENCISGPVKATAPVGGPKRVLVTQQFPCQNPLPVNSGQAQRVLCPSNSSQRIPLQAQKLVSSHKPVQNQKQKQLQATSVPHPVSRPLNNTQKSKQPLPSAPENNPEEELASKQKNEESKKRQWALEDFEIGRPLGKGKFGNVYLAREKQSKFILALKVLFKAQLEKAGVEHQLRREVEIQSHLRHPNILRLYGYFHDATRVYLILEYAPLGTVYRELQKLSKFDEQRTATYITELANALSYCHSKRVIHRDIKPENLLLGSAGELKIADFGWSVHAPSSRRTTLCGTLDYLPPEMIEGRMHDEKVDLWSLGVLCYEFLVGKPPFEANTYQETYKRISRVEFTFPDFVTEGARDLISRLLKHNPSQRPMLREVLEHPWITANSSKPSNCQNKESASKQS

JAK1 = JAK1 (Homo sapiens, UniProt P23458); parameters: SelectScreen Z'-LYTE purified kinase panel, per cent inhibition, mean of two points; details: (μM)=Km app
JAK1, sequence (P23458 whole entry): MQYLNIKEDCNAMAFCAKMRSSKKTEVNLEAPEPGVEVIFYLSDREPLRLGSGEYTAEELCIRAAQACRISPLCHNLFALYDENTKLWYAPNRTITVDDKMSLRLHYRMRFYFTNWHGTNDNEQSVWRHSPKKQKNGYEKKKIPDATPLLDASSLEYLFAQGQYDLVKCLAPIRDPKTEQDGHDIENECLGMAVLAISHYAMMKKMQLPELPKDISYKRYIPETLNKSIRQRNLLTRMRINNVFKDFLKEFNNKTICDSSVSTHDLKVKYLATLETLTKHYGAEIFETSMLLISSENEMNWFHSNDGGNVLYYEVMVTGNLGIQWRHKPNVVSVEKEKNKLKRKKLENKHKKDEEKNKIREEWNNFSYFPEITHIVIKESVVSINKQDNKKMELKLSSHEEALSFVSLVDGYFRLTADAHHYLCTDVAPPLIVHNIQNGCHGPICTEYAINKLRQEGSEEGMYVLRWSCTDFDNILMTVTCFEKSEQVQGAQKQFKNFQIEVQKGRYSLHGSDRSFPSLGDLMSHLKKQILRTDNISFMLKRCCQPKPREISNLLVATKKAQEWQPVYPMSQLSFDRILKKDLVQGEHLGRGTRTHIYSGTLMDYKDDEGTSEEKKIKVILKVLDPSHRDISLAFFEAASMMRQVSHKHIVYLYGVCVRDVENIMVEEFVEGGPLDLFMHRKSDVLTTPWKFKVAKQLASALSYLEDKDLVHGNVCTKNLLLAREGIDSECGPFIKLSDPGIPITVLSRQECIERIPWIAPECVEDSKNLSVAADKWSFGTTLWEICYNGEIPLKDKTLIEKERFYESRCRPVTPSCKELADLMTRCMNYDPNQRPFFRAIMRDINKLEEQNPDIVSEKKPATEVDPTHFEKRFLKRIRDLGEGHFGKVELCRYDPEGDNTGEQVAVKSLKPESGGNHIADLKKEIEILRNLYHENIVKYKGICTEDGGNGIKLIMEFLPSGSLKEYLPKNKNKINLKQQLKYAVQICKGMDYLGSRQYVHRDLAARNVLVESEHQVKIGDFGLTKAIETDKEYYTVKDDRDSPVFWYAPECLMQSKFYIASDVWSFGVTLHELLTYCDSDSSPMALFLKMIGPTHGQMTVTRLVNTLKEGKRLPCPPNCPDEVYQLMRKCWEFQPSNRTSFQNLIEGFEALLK

SYK = SYK (Homo sapiens, UniProt P43405); parameters: SelectScreen Z'-LYTE purified kinase panel, per cent inhibition, mean of two points; details: (μM)=Km app
CSK = CSK (Homo sapiens, UniProt P41240); parameters: SelectScreen Z'-LYTE purified kinase panel, per cent inhibition, mean of two points; details: (μM)=Km app
MARK3 = MARK3 (Homo sapiens, UniProt P27448); parameters: SelectScreen Z'-LYTE purified kinase panel, per cent inhibition, mean of two points; details: (μM)=Km app
MARK3, sequence (P27448 whole entry): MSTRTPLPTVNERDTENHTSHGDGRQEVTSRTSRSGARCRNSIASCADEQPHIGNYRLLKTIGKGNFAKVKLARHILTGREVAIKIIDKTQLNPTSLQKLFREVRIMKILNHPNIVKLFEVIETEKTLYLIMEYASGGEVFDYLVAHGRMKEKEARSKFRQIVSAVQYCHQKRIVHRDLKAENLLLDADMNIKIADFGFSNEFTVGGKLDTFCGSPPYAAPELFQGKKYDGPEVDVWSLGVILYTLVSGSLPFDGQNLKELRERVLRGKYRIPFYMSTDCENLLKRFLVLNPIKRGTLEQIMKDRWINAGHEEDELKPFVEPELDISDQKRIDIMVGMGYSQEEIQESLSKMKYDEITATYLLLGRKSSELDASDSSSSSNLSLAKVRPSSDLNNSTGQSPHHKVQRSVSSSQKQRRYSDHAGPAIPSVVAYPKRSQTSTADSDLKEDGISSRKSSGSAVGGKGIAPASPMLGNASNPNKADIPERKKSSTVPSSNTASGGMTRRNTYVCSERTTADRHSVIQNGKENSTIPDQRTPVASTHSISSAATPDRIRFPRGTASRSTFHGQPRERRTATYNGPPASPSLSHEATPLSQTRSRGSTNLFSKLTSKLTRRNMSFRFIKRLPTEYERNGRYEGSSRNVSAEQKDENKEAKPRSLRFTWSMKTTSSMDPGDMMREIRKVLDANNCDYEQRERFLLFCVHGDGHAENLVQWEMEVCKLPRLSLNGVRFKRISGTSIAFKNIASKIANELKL

KDR (VEGFR2) = KDR (VEGFR2) (Homo sapiens, UniProt P35968); parameters: SelectScreen Z'-LYTE purified kinase panel, per cent inhibition, mean of two points; details: (μM)=Km app
MAPKAPK5 (PRAK) = molecular target: T2, MAPKAPK5 (PRAK) (Homo sapiens, UniProt Q8IW41); parameters: SelectScreen Z'-LYTE purified kinase panel, per cent inhibition, mean of two points; details: (μM)=Km app
T2 sequence (Q8IW41 1-473): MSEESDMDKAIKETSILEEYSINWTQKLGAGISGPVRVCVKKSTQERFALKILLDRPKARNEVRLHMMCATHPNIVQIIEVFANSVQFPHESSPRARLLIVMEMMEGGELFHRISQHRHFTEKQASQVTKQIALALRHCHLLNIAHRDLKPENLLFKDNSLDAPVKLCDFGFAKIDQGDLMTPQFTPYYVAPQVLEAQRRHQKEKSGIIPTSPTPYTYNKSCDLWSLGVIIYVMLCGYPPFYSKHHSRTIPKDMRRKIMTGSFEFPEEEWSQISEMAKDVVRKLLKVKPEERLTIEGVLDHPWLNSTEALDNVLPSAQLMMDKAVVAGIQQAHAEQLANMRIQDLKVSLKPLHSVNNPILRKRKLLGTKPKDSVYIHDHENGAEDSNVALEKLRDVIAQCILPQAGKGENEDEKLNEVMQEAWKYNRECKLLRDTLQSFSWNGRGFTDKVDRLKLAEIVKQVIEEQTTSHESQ

JAK2 JH1 JH2 = molecular target: T3, JAK2 JH1 JH2 (Homo sapiens, UniProt O60674); parameters: SelectScreen Z'-LYTE purified kinase panel, per cent inhibition, mean of two points; details: (μM)=Km app
T3 construct: JH1 JH2
T3 sequence (O60674 whole entry): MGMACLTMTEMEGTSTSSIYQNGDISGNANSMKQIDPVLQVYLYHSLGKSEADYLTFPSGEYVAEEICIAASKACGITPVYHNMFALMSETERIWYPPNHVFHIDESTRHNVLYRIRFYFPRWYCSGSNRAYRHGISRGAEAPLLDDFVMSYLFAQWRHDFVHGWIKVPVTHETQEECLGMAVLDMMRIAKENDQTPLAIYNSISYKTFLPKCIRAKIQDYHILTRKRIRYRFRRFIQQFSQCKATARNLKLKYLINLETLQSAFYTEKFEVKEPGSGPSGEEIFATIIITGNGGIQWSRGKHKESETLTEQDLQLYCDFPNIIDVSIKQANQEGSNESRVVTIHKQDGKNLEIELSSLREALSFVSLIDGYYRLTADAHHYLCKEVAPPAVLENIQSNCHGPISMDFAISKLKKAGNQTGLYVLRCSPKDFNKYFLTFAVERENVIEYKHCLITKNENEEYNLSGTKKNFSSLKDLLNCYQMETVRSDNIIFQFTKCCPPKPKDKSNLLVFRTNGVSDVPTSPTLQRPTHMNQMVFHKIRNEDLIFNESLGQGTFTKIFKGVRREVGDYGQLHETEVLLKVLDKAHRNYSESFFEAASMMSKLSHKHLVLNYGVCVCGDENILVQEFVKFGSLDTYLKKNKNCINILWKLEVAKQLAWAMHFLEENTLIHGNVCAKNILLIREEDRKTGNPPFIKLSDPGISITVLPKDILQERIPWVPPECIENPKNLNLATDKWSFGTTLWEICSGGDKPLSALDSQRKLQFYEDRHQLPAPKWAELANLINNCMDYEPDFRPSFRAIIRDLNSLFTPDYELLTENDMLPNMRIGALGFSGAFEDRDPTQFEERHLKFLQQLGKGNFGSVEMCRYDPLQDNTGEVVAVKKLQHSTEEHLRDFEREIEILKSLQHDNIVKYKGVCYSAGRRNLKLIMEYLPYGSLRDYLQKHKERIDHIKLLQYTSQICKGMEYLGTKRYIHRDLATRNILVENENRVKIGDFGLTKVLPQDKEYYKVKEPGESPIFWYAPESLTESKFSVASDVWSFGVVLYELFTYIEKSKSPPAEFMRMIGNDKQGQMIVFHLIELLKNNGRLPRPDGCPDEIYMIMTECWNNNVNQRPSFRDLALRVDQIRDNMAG

CDK9/cyclin K = CDK9/cyclin K (Homo sapiens, UniProt P50750); parameters: SelectScreen LanthaScreen kinase binding assay, per cent tracer displacement, mean of two points; details: tracer displacement
CDK9/cyclin K, sequence (P50750 whole entry): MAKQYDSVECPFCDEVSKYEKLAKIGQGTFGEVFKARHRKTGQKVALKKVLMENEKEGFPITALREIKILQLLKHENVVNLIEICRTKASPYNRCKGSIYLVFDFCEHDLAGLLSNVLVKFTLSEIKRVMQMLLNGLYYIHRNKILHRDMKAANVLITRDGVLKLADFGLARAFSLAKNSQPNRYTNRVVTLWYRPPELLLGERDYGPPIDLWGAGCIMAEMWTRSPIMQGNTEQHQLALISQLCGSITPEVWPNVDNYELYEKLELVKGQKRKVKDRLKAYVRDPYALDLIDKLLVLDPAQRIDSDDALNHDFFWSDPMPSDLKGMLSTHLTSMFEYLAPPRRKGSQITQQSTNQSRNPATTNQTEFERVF
CDK9/cyclin K, sequence (O75909 whole entry partner): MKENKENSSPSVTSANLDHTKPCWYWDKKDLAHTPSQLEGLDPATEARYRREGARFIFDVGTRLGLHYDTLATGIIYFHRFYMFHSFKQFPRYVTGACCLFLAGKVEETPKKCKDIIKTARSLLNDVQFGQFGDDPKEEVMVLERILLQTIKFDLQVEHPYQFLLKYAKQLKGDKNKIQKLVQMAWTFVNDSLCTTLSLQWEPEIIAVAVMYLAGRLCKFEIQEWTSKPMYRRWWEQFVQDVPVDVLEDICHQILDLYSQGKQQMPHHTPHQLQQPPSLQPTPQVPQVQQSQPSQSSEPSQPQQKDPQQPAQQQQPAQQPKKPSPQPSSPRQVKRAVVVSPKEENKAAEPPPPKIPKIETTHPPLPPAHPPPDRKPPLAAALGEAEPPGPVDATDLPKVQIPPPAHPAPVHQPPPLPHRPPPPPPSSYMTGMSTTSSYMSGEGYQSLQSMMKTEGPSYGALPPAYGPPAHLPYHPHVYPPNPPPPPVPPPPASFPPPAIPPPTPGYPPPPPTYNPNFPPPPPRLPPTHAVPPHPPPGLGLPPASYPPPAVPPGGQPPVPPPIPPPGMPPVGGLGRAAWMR

MAP2K1 (MEK1) = MAP2K1 (MEK1) (Homo sapiens, UniProt Q02750); parameters: SelectScreen LanthaScreen kinase binding assay, per cent tracer displacement, mean of two points; details: tracer displacement
CDK2/cyclin O = CDK2/cyclin O (Homo sapiens, UniProt P24941); parameters: SelectScreen LanthaScreen kinase binding assay, per cent tracer displacement, mean of two points; details: tracer displacement
CDK3/cyclin E1 = CDK3/cyclin E1 (Homo sapiens, UniProt Q00526); parameters: SelectScreen LanthaScreen kinase binding assay, per cent tracer displacement, mean of two points; details: tracer displacement
CDK3/cyclin E1, sequence (Q00526 whole entry): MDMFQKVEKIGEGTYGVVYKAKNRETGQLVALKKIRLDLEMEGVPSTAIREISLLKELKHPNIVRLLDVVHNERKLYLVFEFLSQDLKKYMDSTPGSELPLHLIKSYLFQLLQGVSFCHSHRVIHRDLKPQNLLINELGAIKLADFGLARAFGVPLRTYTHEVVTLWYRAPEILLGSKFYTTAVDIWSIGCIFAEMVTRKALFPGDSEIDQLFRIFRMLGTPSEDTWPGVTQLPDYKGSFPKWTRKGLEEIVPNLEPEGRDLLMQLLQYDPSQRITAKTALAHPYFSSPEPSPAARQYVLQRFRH
CDK3/cyclin E1, sequence (P24864 whole entry partner): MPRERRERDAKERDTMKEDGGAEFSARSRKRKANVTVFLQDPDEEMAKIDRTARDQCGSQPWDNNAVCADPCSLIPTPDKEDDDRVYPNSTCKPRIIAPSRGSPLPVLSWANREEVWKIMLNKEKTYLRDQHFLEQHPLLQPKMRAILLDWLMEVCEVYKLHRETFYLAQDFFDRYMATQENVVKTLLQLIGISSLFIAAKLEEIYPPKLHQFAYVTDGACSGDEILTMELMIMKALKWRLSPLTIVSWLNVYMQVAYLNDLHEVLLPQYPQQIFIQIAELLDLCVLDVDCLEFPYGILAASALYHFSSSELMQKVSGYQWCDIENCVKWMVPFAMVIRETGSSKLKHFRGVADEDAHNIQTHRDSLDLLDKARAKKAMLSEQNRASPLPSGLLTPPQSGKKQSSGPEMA

PI3KC2γ = molecular target: T4, PI3KC2γ (Homo sapiens, UniProt O75747); parameters: ADP-Glo lipid kinase assay with liver PI substrate, luminescence
T4 construct: gene PIK3C2G

| inhibition at 1 µM (AURKA (Aurora A)) [%] | inhibition at 3 µM (AURKA (Aurora A)) [%] | inhibition at 10 µM (AURKA (Aurora A)) [%] | inhibition at 1 µM (JAK1) [%] | inhibition at 3 µM (JAK1) [%] | inhibition at 10 µM (JAK1) [%] | inhibition at 1 µM (SYK) [%] | inhibition at 3 µM (SYK) [%] | inhibition at 10 µM (SYK) [%] | inhibition at 1 µM (CSK) [%] | inhibition at 3 µM (CSK) [%] | inhibition at 10 µM (CSK) [%] | inhibition at 1 µM (MARK3) [%] | inhibition at 3 µM (MARK3) [%] | inhibition at 10 µM (MARK3) [%] | inhibition at 1 µM (KDR (VEGFR2)) [%] | inhibition at 3 µM (KDR (VEGFR2)) [%] | inhibition at 10 µM (KDR (VEGFR2)) [%] | inhibition at 1 µM (MAPKAPK5 (PRAK)) [%] | inhibition at 3 µM (MAPKAPK5 (PRAK)) [%] | SMILES | other results |
| --- | --- | --- | --- | --- | --- | --- | --- | --- | --- | --- | --- | --- | --- | --- | --- | --- | --- | --- | --- | --- | --- |
| 5.01 | 0.816 | 0.802 | 2.76 | 4.25 | 0.516 | 0.0373 | 3.51 | 6.6 | 9.48 | 7.4 | 6.13 | 1.74 | 4.94 | 6.84 | 0.654 | 10.7 | 9.78 | -3.78 | 2.14 | CS(=O)(=O)Nc1cccc(-c2csc(NC(=O)CSc3nc4nccnc4c(=O)n3CCc3ccccc3)n2)c1 [compound 3, PITCOIN3] | inhibition at 10 µM (MAPKAPK5 (PRAK)): -2.49%; inhibition at 1 µM (JAK2 JH1 JH2): 0.755%; inhibition at 3 µM (JAK2 JH1 JH2): 0.839%; inhibition at 10 µM (JAK2 JH1 JH2): 1.69%; inhibition at 1 µM (CDK9/cyclin K): 0.179%; inhibition at 3 µM (CDK9/cyclin K): -3.08%; inhibition at 10 µM (CDK9/cyclin K): -7.54%; inhibition at 1 µM (MAP2K1 (MEK1)): -0.643%; inhibition at 3 µM (MAP2K1 (MEK1)): 0.136%; inhibition at 10 µM (MAP2K1 (MEK1)): -2.2%; inhibition at 1 µM (CDK2/cyclin O): 18.1%; inhibition at 3 µM (CDK2/cyclin O): 11.6%; inhibition at 10 µM (CDK2/cyclin O): 2.75%; inhibition at 1 µM (CDK3/cyclin E1): 13.1%; inhibition at 3 µM (CDK3/cyclin E1): 8.71%; inhibition at 10 µM (CDK3/cyclin E1): -18.8%; IC50 (PI3KC2γ; read-out: PITCOIN3 (IC50)): > 10 µM |
| 0.058 | 0.515 | -0.231 | 6.58 | 2.72 | 0.0941 | 2.84 | 2.83 | -0.59 | 3.79 | 4.7 | 4.31 | 2.69 | 11.3 | 0.672 | 8.19 | 4.57 | -0.425 | -1.38 | 1.26 | O=C(CSc1nc2nccnc2c(=O)n1CCc1ccccc1)Nc1nccs1 [compound 1, PITCOIN1] | inhibition at 10 µM (MAPKAPK5 (PRAK)): 0.194%; inhibition at 1 µM (JAK2 JH1 JH2): -0.97%; inhibition at 3 µM (JAK2 JH1 JH2): -0.0652%; inhibition at 10 µM (JAK2 JH1 JH2): -0.468%; inhibition at 1 µM (CDK9/cyclin K): -2.66%; inhibition at 3 µM (CDK9/cyclin K): -5.46%; inhibition at 10 µM (CDK9/cyclin K): -1.18%; inhibition at 1 µM (MAP2K1 (MEK1)): -0.281%; inhibition at 3 µM (MAP2K1 (MEK1)): 2.33%; inhibition at 10 µM (MAP2K1 (MEK1)): -0.179%; inhibition at 1 µM (CDK2/cyclin O): 17.6%; inhibition at 3 µM (CDK2/cyclin O): -4.45%; inhibition at 10 µM (CDK2/cyclin O): 7.96%; inhibition at 1 µM (CDK3/cyclin E1): -0.974%; inhibition at 3 µM (CDK3/cyclin E1): -9.41%; inhibition at 10 µM (CDK3/cyclin E1): 1.77% |
| – | – | – | – | – | – | – | – | – | – | – | – | – | – | – | – | – | – | – | – | O=C(CSc1nc2nccnc2c(=O)n1CCc1ccccc1)Nc1nc(-c2cccc(O)c2)cs1 [compound 2, PITCOIN2] | IC50 (PI3KC2γ; read-out: PITCOIN2 (IC50)): > 10 µM |

Reference: publication PMC7613998, “Development of selective inhibitors of phosphatidylinositol 3-kinase C2α” (Nature Chemical Biology, 2022)
